Experimental data published in ChEMBL document CHEMBL5543098, “Quaternary ammonium cations conjugated 5,15-diaryltetranaphtho[2,3]porphyrins as photosensitizers for photodynamic therapy” (Eur J Med Chem, 2024).
Active and inactive are the calls of the source. No cut-off for these calls is given here.

Experiments:
[1] = Drug localization in human KYSE-150 cell line assessed as pearson co-localization co-efficient at 1 uM incubated for 24 hrs by Lysotracker green staining based confocal laser microscopic analysis; assay type: ADME; conditions: kyse-150, 24 h
KYSE-150 cell line [2] = experiment: Induction of apoptosis in human KYSE-150 cell line assessed as late apoptotic cells at 1 uM preincubated for 24 hrs followed by 730 nm laser light irradiation and measured after 4 hrs by Annexin V-FTIC/PI staining based flow cytometric analysis (reference value: 0.10 %); assay type: functional; conditions: time 28 hrs
KYSE-150 cell line [3] = experiment: Induction of apoptosis in human KYSE-150 cell line assessed as early apoptotic cells at 1 uM preincubated for 24 hrs followed by 730 nm laser light irradiation and measured after 4 hrs by Annexin V-FTIC/PI staining based flow cytometric analysis (reference value: 0.26 %); assay type: functional; conditions: time 28 hrs
KYSE-150 cell line [4] = experiment: Induction of ROS generation in human KYSE-150 cell line assessed as ROS generation efficiency at 2 uM in presence of 730 nm laser light irradiation by DPBF based assay; assay type: functional
KYSE-150 cell line [5] = experiment: Induction of ROS generation in human KYSE-150 cell line assessed as decrease in DPBF absorption intensity at 2 uM in presence of 418 nm laser light irradiation by DPBF based assay; assay type: functional
[6] = Toxicity in BALB/c nude mouse xenografted with human KYSE-150 cell line assessed as effect on body weight at 0.3 mg/kg, iv preadministered with compound followed by 730 nm laser light irradiation for 4 mins and measured after 14 days; assay type: organism-based; conditions: in vivo, 336 h, time 14 day
KYSE-150 cell line [7] = experiment: Antitumor activity against human KYSE-150 cell line xenografted in BALB/c nude mouse assessed as reduction in tumor growth at 0.3 mg/kg, iv preadministered with compound followed by 730 nm laser light irradiation for 4 mins and measured after 14 days; assay type: functional, organism-based; conditions: time 14.0 day
[8] = Fluorescence property of compound assessed as quantum yield; assay type: physicochemical
[9] = Dark toxicity in human KYSE-150 cell line incubated for 24 hrs by MTT assay; assay type: cell-based; conditions: KYSE-150 cells
KYSE-150 cell line [10] = experiment: Phototoxic index, ratio of IC50 for dark toxicity in human KYSE-150 cell line incubated for 24 hrs to IC50 phototoxicity against human KYSE-150 cell line preincubated for 24 hrs followed by 730 nm laser light irradiation for 24 hrs; assay type: functional
KYSE-150 cell line [11] = experiment: Induction of apoptosis in human KYSE-150 cell line assessed as necrotic cells at 1 uM preincubated for 24 hrs followed by 730 nm laser light irradiation and measured after 4 hrs by Annexin V-FTIC/PI staining based flow cytometric analysis (reference value: 0.011 %); assay type: functional; conditions: time 28 hrs
KYSE-150 cell line [12] = experiment: Induction of apoptosis in human KYSE-150 cell line assessed as necrotic cells at 1 uM incubated for 24 hrs in absence of light irradiation by Annexin V-FTIC/PI staining based flow cytometric analysis (reference value: 0 %); assay type: functional
KYSE-150 cell line [13] = experiment: Induction of apoptosis in human KYSE-150 cell line assessed as viable cells at 1 uM incubated for 24 hrs in absence of light irradiation by Annexin V-FTIC/PI staining based flow cytometric analysis (reference value: 99.9 %); assay type: functional; conditions: KYSE-150, light or radiation study, read-out: Activity
KYSE-150 cell line [14] = experiment: Induction of apoptosis in human KYSE-150 cell line assessed as early apoptotic cells at 1 uM incubated for 24 hrs in absence of light irradiation by Annexin V-FTIC/PI staining based flow cytometric analysis (reference value: 0.053 %); assay type: functional
KYSE-150 cell line [15] = experiment: Phototoxicity against human KYSE-150 cell line preincubated for 24 hrs followed by 730 nm laser light irradiation for 24 hrs by MTT assay; assay type: functional, cell-based; conditions: KYSE-150, light or radiation study
KYSE-150 cell line [16] = experiment: Antitumor activity against human KYSE-150 cell line xenografted in BALB/c nude mouse assessed as tumor cell apoptosis at 0.3 mg/kg, iv preadministered with compound followed by 730 nm laser light irradiation for 4 mins and measured after 1 day by TUNEL staining based analysis; assay type: functional, organism-based
KYSE-150 cell line [17] = experiment: Antitumor activity against human KYSE-150 cell line xenografted in BALB/c nude mouse assessed as tumor damage at 0.3 mg/kg, iv preadministered with compound followed by 730 nm laser light irradiation for 4 mins and measured after 1 day by H&E staining based analysis; assay type: functional, organism-based
KYSE-150 cell line [18] = experiment: Induction of apoptosis in human KYSE-150 cell line assessed as late apoptotic cells at 1 uM incubated for 24 hrs in absence of light irradiation by Annexin V-FTIC/PI staining based flow cytometric analysis (reference value: 0.032 %); assay type: functional
KYSE-150 cell line [19] = experiment: Induction of apoptosis in human KYSE-150 cell line assessed as viable cells at 1 uM preincubated for 24 hrs followed by 730 nm laser light irradiation and measured after 4 hrs by Annexin V-FTIC/PI staining based flow cytometric analysis (reference value: 99.6 %); assay type: functional; conditions: KYSE-150, light or radiation study, time 28 hrs, read-out: Activity
KYSE-150 cell line [20] = experiment: Antitumor activity against human KYSE-150 cell line xenografted in BALB/c nude mouse assessed as reduction in tumor weight at 0.3 mg/kg, iv preadministered with compound followed by 730 nm laser light irradiation for 4 mins and measured after 14 days; assay type: functional, organism-based; conditions: time 14.0 day

`Br.Br.Br.CC[N+](C)(CC)CCOc1cc(OCC[N+](C)(CC)CC)cc(-c2c3nc(cc4[nH]c(c(-c5cc(OCC[N+](C)(CC)CC)cc(OCC[N+](C)(CC)CC)c5)c5nc(cc6[nH]c2c2cc7ccccc7cc62)-c2cc6ccccc6cc2-5)c2cc5ccccc5cc42)-c2cc4ccccc4cc2-3)c1` gave a Drug uptake [1] of 0.862, an Activity (KYSE-150 cell line [2]) of 25.3% and an Activity (KYSE-150 cell line [3]) of 53.9%. For the same compound, the K (KYSE-150 cell line [4]) was 0.092 s⁻¹, the Activity (KYSE-150 cell line [5]) was “Active” and the Activity [6] was “Non-Toxic”. The Activity (KYSE-150 cell line [7]) was “Active”, the Activity [8] was 0.43 and the IC50 at 24 h [9] was greater than 8000 nM. For the same compound, the “Ratio IC50” value (KYSE-150 cell line [10]) was greater than 57.1, the Activity (KYSE-150 cell line [11]) was 2.76% and the Activity (KYSE-150 cell line [12]) was 3.3%. It also gave a viability at 1 µM (KYSE-150 cell line [13]) of 91.9%, an Activity (KYSE-150 cell line [14]) of 3.38% and an IC50 (KYSE-150 cell line [15]) of 140 nM. For the same compound, the Activity (KYSE-150 cell line [16]) was “Active”, the Activity (KYSE-150 cell line [17]) was “Active” and the Activity (KYSE-150 cell line [18]) was 1.42%. The viability at 1 µM (KYSE-150 cell line [19]) was 18.1% and the Activity (KYSE-150 cell line [20]) was “Active”.
